Measurements: patent publication EP0464206A1, “DRUG FOR IMPROVING BRAIN FUNCTION” (DAIICHI PHARMACEUTICAL CO., LTD., priority 1989, dated 1990)

What was measured:
[1] = test system: patients, who suffered from cerebrovascular dementia or Alzheimer's type senile dementia with Parkinson's disease as a complication; assay: Clinical administration of DBcAMP by intravenous drip infusion to dementia patients; type: in vivo; conditions: for Side effect / Progress after administration and evaluation (symptom/ condition): 300 mg/day intravenous drip infusion for 8 hours
Experimental: 300 mg of sodium N⁶-2'-0-dibutyryladenosine-3',5'-cyclic phosphate (hereinafter, abbreviated as DBcAMP) was dissolved in a saline and administered to five patients, who suffered from cerebrovascular dementia or Alzheimer's type senile dementia with Parkinson's disease as a complication, by intravenous drip infusion for approximately 8 hours per day continuously.
These patients gave no response to a call and their intellectual level was decreased. […] Therefore, it was recognized that these patients suffered from serious dementia.

Acute toxicity in rats = conditions: in vivo, iv; rat, intravenously injected; read-out: LD₅₀
Experimental: The cAMP derivative of formula (I) and a salt thereof were administered to rats in order to examine the acute toxicities of these compounds.
(§1) DBcAMP was intravenously injected into rats and mice to thereby examine the acute toxicity thereof. As a result, LD₅₀ of this compound to rat was 459 mg/kg while that to mouse was 545 mg/kg.

Acute toxicity in mice = conditions: in vivo, iv; mouse, intravenously injected; read-out: LD₅₀
Experimental: as §1

[2] = Test 2: patient five, Cerebrovascular dementia

CCCC(=O)Nc1ncnc2c1ncn2[C@@H]1O[C@@H]2COP(=O)(O)O[C@H]2[C@H]1OC(=O)CCC [DBcAMP, sodium N⁶-2'-0-dibutyryladenosine-3',5'-cyclic phosphate]
Side effect ([1]; Test 1: patient three, Alzheimer's type dementia): None. | Progress after administration and evaluation (symptom/ condition) [1, 2]: Showed "Yes" or "No" for simple question by shaking head 1 week after the administration. No speech but groan. Remarkable improvement in symptoms caused by a decline in brain function, compared before the administration. | Side effect [1, 2]: None. | Progress after administration and evaluation (symptom/ condition) ([1]; Test 3: patient four, Cerebrovascular dementia (with Parkinson's disease)): Groaned in night from the second day of the administration, after a year's silence. Groaning became larger thereafter. Improvement in various symptoms caused by a decline in brain function. | Side effect ([1]; Test 3: patient four, Cerebrovascular dementia): None. | Progress after administration and evaluation (symptom/ condition) ([1]; Test 4: patient two, Alzheimer's type dementia (with Parkinson's disease)): Answered to call 1 week after the administration. Soliloquized in night. Remarkable improvement in symptoms caused by a decline in brain function. | Side effect ([1]; Test 4: patient two, Alzheimer's type dementia): None. | Side effect ([1]; Test 5: patient one, Cerebrovascular dementia, multiple cerebral infarct): None. | symptoms of the complicated Parkinson's disease ([1]; five patients, 300 mg/day intravenous drip infusion): disappearance of oily skin and reduced myosclerosis | LD50 (Acute toxicity in rats): 459 mg/kg | LD50 (Acute toxicity in mice): 545 mg/kg
